Consider 2 compounds from patent publication US20020170080A1, “Alpha-tocopherol transfer protein knockout animals” (The Regents of the University of California, priority 2000, published 2002).

For assay [1], the system named is abdominal aortas or iliac arteries. The note with it: nonhuman primates; cited from earlier work.
Another assay concerns femoral artery lesions. The note with it: human clinical trial; cited from earlier work.
The subject of another assay is Ttpa^−/− females. Put plainly: Vitamin E supplementation of the diet and the fertility defect of Ttpa−/− female mice. In kind it is in vivo, mouse. The note with it: vitamin E supplementation 1000 IU/kg of diet, data not shown. From the text:
Ttpa^−/− mice were generally healthy. Offspring from heterozygous intercrosses were born with the expected Mendelian distribution. Ttpa^−/− mice at 18 months of age had no obvious signs of neurological disease. In contrast, humans with α-TTP gene defects develop ataxia with vitamin E deficiency by the first decade of life (Sokol et al. (1988) J. Lab. Clin. Med. 111: 548-559; Ouahchi et al. (1995) Nat. Genet. 9: 141-145; Hentati et al. (1996) Ann. Neurol. 39: 295-300). […] Ttpa^−/− males had no obvious impairment in fertility.

For another assay, the system named is apo E^−/− mice. The note with it: apo E−/− mice fed a chow diet, vitamin E supplementation; cited from earlier work.

As for `CC(C)(Sc1cc(C(C)(C)C)c(O)c(C(C)(C)C)c1)Sc1cc(C(C)(C)C)c(O)c(C(C)(C)C)c1` [probucol], in assay [1], the “lesion development in abdominal aortas or iliac arteries” value is reported as “did not prevent”. In addition, the “progression of femoral artery lesions” value in the assay with femoral artery lesions was “did not prevent progression of femoral artery lesions”.
In the case of vitamin E, the “effect on fertility defect” value in the assay with Ttpa^−/− females is on record as “completely reversed the fertility defect”. Besides, the levels of atherosclerosis entry with apo E^−/− mice is “decreased levels of atherosclerosis”.
